# Assays:
# Caco-2 cells = assay: Cytotoxicity study on Caco-2 cells (MTS assay); type: cell-based, Human; conditions: Caco-2, 2 hour incubation
# Experimental: Culture of Caco-2 cells. Caco-2 cells were grown in DMEM high glucose with L-glutamine supplemented with 10% heat inactivated fetal bovine serum, 1% penicillin (100 U/mL), streptomycin (100 micrograms/mL), and 1% NEAA solution.
# Cytotoxicity study on Caco-2 cells. Cytotoxicity was determined using a MTS assay as an indicator of cell viability. Cell viability was assessed after the co-incubation of 10,000 Caco-2 cells/well on a 96-well tissue cultured plate (Costar® Corning®) with the aforementioned formulations in dispersion in culture DMEM medium supplemented with 4 mM of glutamine, 100 U/mL of penicillin, 100 microgram/mL of streptomycin and […] heat inactivated fetal bovine serum. […] The EC50 value for the different formulations were calculated from the dataset by non-linear regression analysis using GraphPad Prism.
# [1] = system: human intestinal tissue (jejunal); assay: Toxicity in human intestinal tissue in Ussing chambers (electrophysiology, forskolin response); conditions: Ussing chamber
# Source text: Toxicity and permeability in human intestinal tissue. Jejunal tissue samples were collected from patients undergoing laparoscopic Roux-en-Y gastric bypass. Patients had given full informed consent. The study has been reviewed and approved by a regional ethical review board. Tissue samples were immediately transferred into a vessel containing cold, oxygenated Krebs-Ringer buffer and quickly transported to the laboratory. Arriving, the epithelium was dissected away from sub-epithelial tissues and mounted in horizontal as well as vertically oriented Ussing chambers with 9 mm openings between the two chambers. The basolateral chamber was filled with glucose containing Krebs-Ringer buffer, while the glucose in the apical chamber was substituted with mannitol. This is to avoid SGLT-induced tight junction opening. […] Electrophysiology of the tissue was monitored throughout the experiment to assure continued tissue viability. […] Viable tissue with oxidative metabolism will form cAMP in response to forskolin leading to an opening of CFTR C1 channels, the response was monitored as changes in potential difference and short-circuit current over the epithelium. The permeability of fluorescently labeled nanoparticles was analyzed in a plate reader and the apparent permeability rate constant (Papp) was calculated.
Structure (SMILES),cytotoxicity (Caco-2 cells),cytotoxicity sequence of tested products (Caco-2 cells),forskolin response [1]
CC(C)CCC[C@@H](C)[C@H]1CC[C@H]2[C@@H]3CC=C4C[C@@H](OC(=O)N[C@H](CCCNC(=N)N)C(=O)N[C@H](CCCNC(=N)N)C(=O)N[C@H](CCCNC(=N)N)C(=O)N[C@H](CCCNC(=N)N)C(=O)N[C@H](CCCNC(=N)N)C(=O)N[C@H](CCCNC(=N)N)C(=O)N[C@H](CCCNC(=N)N)C(=O)N[C@H](CCCNC(=N)N)C(N)=O)CC[C@]4(C)[C@H]3CC[C@]12C [Chol-R8],highest cytotoxicity,Chol-R8>C12-R8>ENCPs>diblock or branched PGA-PEG,
CCCCCCCCCCCC(=O)N[C@H](CCCNC(=N)N)C(=O)N[C@H](CCCNC(=N)N)C(=O)N[C@H](CCCNC(=N)N)C(=O)N[C@H](CCCNC(=N)N)C(=O)N[C@H](CCCNC(=N)N)C(=O)N[C@H](CCCNC(=N)N)C(=O)N[C@H](CCCNC(=N)N)C(=O)N[C@H](CCCNC(=N)N)C(N)=O [Formulation C12-R8],,Chol-R8>C12-R8>ENCPs>diblock or branched PGA-PEG,no evident change

# Reference: patent US10471020B2, “Nanoparticles with protected interiors, and methods of use thereof” (Universidade de Santiago de Compostela, priority 2016, dated 2019)
